Data: ChEMBL document CHEMBL4011594, “Discovery and optimization of 2-pyridinone aminal integrase strand transfer inhibitors for the treatment of HIV” (Bioorg Med Chem Lett, 2017)
In brackets after ≈: the same amount, converted by molar mass.

Legend:
[1] = Plasma protein binding in Beagle dog; type: ADME, cell-free, Canis lupus familiaris; conditions: read-out: PPB (converted)
[2] = Aqueous solubility of the compound at pH 2; type: physicochemical
[3] = Aqueous solubility of the compound at pH 7; type: physicochemical
[4] = Clearance in Beagle dog at 0.5 mg/kg, iv or 1 mg/kg, po; type: ADME, organism-based, Canis lupus familiaris; conditions: in vivo
[5] = Volume of distribution in Beagle dog at 0.5 mg/kg, iv or 1 mg/kg, po; type: ADME, organism-based, Canis lupus familiaris; conditions: in vivo
[6] = Half life in Beagle dog at 0.5 mg/kg, iv or 1 mg/kg, po; type: ADME, organism-based, Canis lupus familiaris; conditions: in vivo
[7] = Oral bioavailability in Beagle dog at 1 mg/kg; type: ADME, organism-based, Canis lupus familiaris; conditions: in vivo
[8] = test system: Human immunodeficiency virus 1; assay: Inhibition of wild-type HIV-1 integrase strand transfer activity assessed as reduction in viral replication in presence of 10% normal human serum
[9] = test system: Human immunodeficiency virus type 1 integrase (Human immunodeficiency virus 1), Q7ZJM1 [E92Q]; assay: Inhibition of HIV-1 integrase E92Q mutant strand transfer activity assessed as reduction in viral replication
[10] = test system: Human immunodeficiency virus type 1 integrase (Human immunodeficiency virus 1), Q7ZJM1 [Y143R]; assay: Inhibition of HIV-1 integrase Y143R mutant strand transfer activity assessed as reduction in viral replication
[11] = test system: Human immunodeficiency virus type 1 integrase (Human immunodeficiency virus 1), Q7ZJM1 [Q148R]; assay: Inhibition of HIV-1 integrase Q148R mutant strand transfer activity assessed as reduction in viral replication
[12] = test system: Human immunodeficiency virus type 1 integrase (Human immunodeficiency virus 1), Q7ZJM1 [Q148K]; assay: Inhibition of HIV-1 integrase Q148K mutant strand transfer activity assessed as reduction in viral replication
[13] = test system: Human immunodeficiency virus type 1 integrase (Human immunodeficiency virus 1), Q7ZJM1 [N155H]; assay: Inhibition of HIV-1 integrase N155H mutant strand transfer activity assessed as reduction viral replication
[14] = test system: Human immunodeficiency virus type 1 integrase (Human immunodeficiency virus 1), Q7ZJM1 [G140S,Q148H]; assay: Inhibition of HIV-1 integrase G140S/Q148H double mutant strand transfer activity assessed as reduction in viral replication
[15] = test system: Human immunodeficiency virus 1; assay: Inhibition of HIV-1 integrase strand transfer activity assessed as reduction in viral replication in presence of 50% normal human serum
[16] = Apparent permeability of the compound; type: physicochemical; conditions: not told

Row | SMILES | fraction unbound [1] | solubility [2] | solubility [3] | clearance [4] | Vd [5] | half-life [6] | bioavailability [7] | IP [8] | IP [9] | IP [10] | IP [11] | IP [12] | IP [13] | IP [14] | IP [15] | Papp [16]
1 | O=C1c2c(c3n(c(=O)c2O)[C@@H](C2CC2)N(C2CC2)C3=O)CCN1Cc1ccc(F)c(Cl)c1 | 0.024 | 40 µM (≈ 18.3 µg/mL) | 34 µM (≈ 15.6 µg/mL) | 1.4 mL/min/kg | 0.7 L/kg | 7.5 h | 44% | 95 nM | 123 nM | 142 nM | 1010 nM | 820 nM | 271 nM | 1540 nM | 1730 nM | –
2 | N#Cc1cccc2c1[C@]1(CC2)NC(=O)c2c3c(c(O)c(=O)n21)C(=O)N(Cc1ccc(F)c(Cl)c1)CC3 | 0.028 | 8 µM (≈ 4.04 µg/mL) | 10 µM (≈ 5.05 µg/mL) | 2.4 mL/min/kg | 0.9 L/kg | 10.6 h | 40% | 4 nM | 18 nM | 4 nM | 7 nM | 9 nM | 13 nM | 18 nM | 18 nM | 7 ×10⁻⁶ cm/s
3 | O=C1NC2(Cc3ccccc3C2)n2c1c1c(c(O)c2=O)C(=O)N(Cc2ccc(F)c(Cl)c2)CC1 | – | < 3 µM | < 3 µM | – | – | – | – | 620 nM | – | – | – | – | – | – | 1800 nM | –
4 | O=C1c2c(c3n(c(=O)c2O)C2(CCC4CC42)N(CC2CCOCC2)C3=O)CCN1Cc1ccc(F)c(Cl)c1 (racemic) | – | 44 µM (≈ 23.8 µg/mL) | 14 µM (≈ 7.59 µg/mL) | – | – | – | – | 31 nM | – | – | – | – | – | – | 240 nM | –
5 | O=C1N[C@]2(CC[C@H]3C[C@H]32)n2c1c1c(c(O)c2=O)C(=O)N(Cc2ccc(F)c(Cl)c2)CC1 | – | 30 to 50 µM (≈ 13.3 to 22.2 µg/mL) | 31 µM (≈ 13.8 µg/mL) | 0.12 mL/min/kg | 0.1 L/kg | 13 h | 15% | 30 nM | 210 nM | 28 nM | 107 nM | 450 nM | 84 nM | 491 nM | 206 nM | –
6 | CO[C@@H](C)CN1C(=O)c2c3c(c(O)c(=O)n2C12CCC1CC12)C(=O)N(Cc1ccc(F)c(Cl)c1)CC3 (stereo partly specified) | – | 12 µM (≈ 6.19 µg/mL) | 23 µM (≈ 11.9 µg/mL) | – | – | – | – | 28 nM | – | – | – | – | – | – | 210 nM | –
7 | O=C1c2c(c3n(c(=O)c2O)C2(CCC4CC42)N(CCN2C(=O)c4ccccc4C2=O)C3=O)CCN1Cc1ccc(F)c(Cl)c1 (stereo unspecified) | – | < 2 µM | < 2 µM | – | – | – | – | 80 nM | – | – | – | – | – | – | 890 nM | –
8 | O=C1c2c(c3n(c(=O)c2O)C2(CCC4CC42)N(CCO)C3=O)CCN1Cc1ccc(F)c(Cl)c1 (stereo unspecified) | – | 138 µM (≈ 67.3 µg/mL) | 107 µM (≈ 52.2 µg/mL) | – | – | – | – | 48 nM | – | – | – | – | – | – | 274 nM | –
9 | CN(CCN1C(=O)c2c3c(c(O)c(=O)n2C12CCC1CC12)C(=O)N(Cc1ccc(F)c(Cl)c1)CC3)S(C)(=O)=O (stereo unspecified) | – | 33 µM (≈ 19.1 µg/mL) | 17 µM (≈ 9.84 µg/mL) | – | – | – | – | 19 nM | – | – | – | – | – | – | 150 nM | –
10 | COC(C)(C)CCN1C(=O)c2c3c(c(O)c(=O)n2C12CCC1CC12)C(=O)N(Cc1ccc(F)c(Cl)c1)CC3 (stereo unspecified) | – | < 6 µM | < 6 µM | – | – | – | – | 45 nM | – | – | – | – | – | – | 410 nM | –
11 | COc1ccnc2c1C1(CC2)NC(=O)c2c3c(c(O)c(=O)n21)C(=O)N(Cc1ccc(F)c(Cl)c1)CC3 (racemic) | – | 190 µM (≈ 97.1 µg/mL) | 63 µM (≈ 32.2 µg/mL) | – | – | – | – | 13 nM | – | – | – | – | – | – | 74 nM | –
12 | O=C1c2c(c3n(c(=O)c2O)C2(CCC4CC42)N(CCN2C(=O)CCC2=O)C3=O)CCN1Cc1ccc(F)c(Cl)c1 (stereo unspecified) | 0.058 | 89 µM (≈ 50.6 µg/mL) | 48 µM (≈ 27.3 µg/mL) | 7.3 mL/min/kg | 2.1 L/kg | 6.6 h | 4.5 to 5% | 7 nM | 7 nM | 11 nM | 7 nM | 7 nM | 8 nM | 23 nM | 46 nM | –
13 | C[C@H](O)CN1C(=O)c2c3c(c(O)c(=O)n2[C@@]12CC[C@H]1C[C@H]12)C(=O)N(Cc1ccc(F)c(Cl)c1)CC3 | 0.025 | 125 µM (≈ 62.7 µg/mL) | 98 µM (≈ 49.2 µg/mL) | 2.9 mL/min/kg | 0.5 L/kg | 6 h | 42% | 8 nM | 10 nM | 11 nM | 10 nM | 10 nM | 11 nM | 27 nM | 44 nM | –
14 | CC1CCC2(C1)NC(=O)c1c3c(c(O)c(=O)n12)C(=O)N(Cc1ccc(F)c(Cl)c1)CC3 (racemic) | – | < 5 µM | < 5 µM | – | – | – | – | 110 nM | – | – | – | – | – | – | 700 nM | –
15 | Cc1ccc2c(c1)CCC21NC(=O)c2c3c(c(O)c(=O)n21)C(=O)N(Cc1ccc(F)c(Cl)c1)CC3 (racemic) | – | < 3 µM | < 3 µM | – | – | – | – | 59 nM | – | – | – | – | – | – | 240 nM | –
16 | O=C1N[C@@]2(CC[C@@H]3C[C@@H]32)n2c1c1c(c(O)c2=O)C(=O)N(Cc2ccc(F)c(Cl)c2)CC1 | – | 49 µM (≈ 21.7 µg/mL) | 32 µM (≈ 14.2 µg/mL) | – | – | – | – | 16 nM | – | – | – | – | – | – | 88 nM | –
17 | CN1C(=O)c2c3c(c(O)c(=O)n2C12CCC2)C(=O)N(Cc1ccc(F)c(Cl)c1)CC3 | – | < 5 µM | < 5 µM | – | – | – | – | 210 nM | – | – | – | – | – | – | 900 nM | –
18 | O=C1NC(C2CCC2)n2c1c1c(c(O)c2=O)C(=O)N(Cc2ccc(F)c(Cl)c2)CC1 (racemic) | – | 40 µM (≈ 17.3 µg/mL) | 31 µM (≈ 13.4 µg/mL) | – | – | – | – | 8340 nM | – | – | – | – | – | – | > 10000 nM | –
19 | CN1C(=O)c2c3c(c(O)c(=O)n2C12CCCCCC2)C(=O)N(Cc1ccc(F)c(Cl)c1)CC3 | – | < 5 µM | < 5 µM | – | – | – | – | 1100 nM | – | – | – | – | – | – | 4800 nM | –
